# Data reported in ChEMBL document CHEMBL3804756 (J Med Chem, 2016).
# pEC50, pKi: −log10 of the molar value.
# Biological target: Histamine H1 receptor (Homo sapiens, UniProt P35367)
# Assay: Displacement of [3H]mepyramine from human histamine H1 receptor expressed in sf9 cell membrane co-expressing RGS4 incubated for 60 mins by liquid scintillation counting method
# Sequence of Histamine H1 receptor (P35367 whole entry): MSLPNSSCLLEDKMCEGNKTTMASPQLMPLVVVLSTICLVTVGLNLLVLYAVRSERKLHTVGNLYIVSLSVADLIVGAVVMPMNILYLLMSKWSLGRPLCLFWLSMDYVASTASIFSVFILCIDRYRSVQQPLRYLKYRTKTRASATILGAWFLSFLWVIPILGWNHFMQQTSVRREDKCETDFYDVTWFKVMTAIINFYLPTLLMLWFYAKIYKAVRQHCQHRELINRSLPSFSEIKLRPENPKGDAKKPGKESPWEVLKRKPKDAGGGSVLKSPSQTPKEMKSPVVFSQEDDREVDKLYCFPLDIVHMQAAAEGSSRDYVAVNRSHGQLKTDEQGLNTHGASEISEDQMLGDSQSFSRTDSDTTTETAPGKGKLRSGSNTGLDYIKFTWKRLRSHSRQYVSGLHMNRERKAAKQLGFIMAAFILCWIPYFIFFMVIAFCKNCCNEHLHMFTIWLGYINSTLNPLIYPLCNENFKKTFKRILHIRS
row,SMILES,pKi
1,N#C/N=C(/NCCSc1ccccc1)NC[C@@H]1CC[C@@H](c2c[nH]cn2)C1,5.10
2,N#C/N=C(/NCCSc1ccccc1)NC[C@H]1CC[C@H](c2c[nH]cn2)C1,5.19
3,CN/C(=N\C#N)NC[C@@H]1CC[C@@H](c2c[nH]cn2)C1,< 5.00
4,CN/C(=N\C#N)NC[C@H]1CC[C@@H](c2c[nH]cn2)C1,< 5.00
5,N#C/N=C(\NC[C@H]1CC[C@H](c2c[nH]cn2)C1)NC1CC1 (racemic),< 5.00
6,CN/C(=N\C#N)NC[C@H]1CC[C@H](c2c[nH]cn2)C1 (racemic),< 5.00

# Other lines, results leading:
row,pKi,SMILES
1,5.17,N#C/N=C(/NCCSc1ccccc1)NC[C@H]1CC[C@@H](c2c[nH]cn2)C1
2,5.52,N#C/N=C(/NCCSc1ccccc1)NC[C@@H]1CC[C@H](c2c[nH]cn2)C1
3,< 5.00,N#C/N=C(/NCCOc1ccccc1)NC[C@H]1CC[C@H](c2c[nH]cn2)C1 (racemic)

# Biological target: T1, Histamine H2 receptor (Homo sapiens, UniProt P25021)
# T1 sequence (P25021 whole entry): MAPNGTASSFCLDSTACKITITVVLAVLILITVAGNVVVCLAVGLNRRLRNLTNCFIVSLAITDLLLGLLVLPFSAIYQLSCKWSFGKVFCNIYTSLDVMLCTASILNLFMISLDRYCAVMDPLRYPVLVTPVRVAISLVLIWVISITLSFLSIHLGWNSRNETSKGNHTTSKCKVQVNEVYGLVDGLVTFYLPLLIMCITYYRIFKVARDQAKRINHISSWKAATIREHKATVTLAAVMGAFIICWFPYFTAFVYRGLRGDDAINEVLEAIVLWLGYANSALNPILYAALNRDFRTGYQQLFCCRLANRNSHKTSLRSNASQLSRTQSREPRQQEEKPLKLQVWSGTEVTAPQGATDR
# Assay: Antagonist activity at human histamine H2 receptor expressed in sf9 cell membrane co-expressing Gsalphas assessed as inhibition of histamine-induced [35S]GTPgammaS binding incubated for 90 mins
# Format: functional
row,SMILES,Kb
1,N#C/N=C(/NCCSc1ccccc1)NC[C@@H]1CC[C@@H](c2c[nH]cn2)C1,> 10 µM
2,N#C/N=C(/NCCSc1ccccc1)NC[C@H]1CC[C@@H](c2c[nH]cn2)C1,> 10 µM
3,CN/C(=N\C#N)NC[C@@H]1CC[C@@H](c2c[nH]cn2)C1,> 10 µM
4,CN/C(=N\C#N)NC[C@H]1CC[C@@H](c2c[nH]cn2)C1,> 10 µM
5,N#C/N=C(\NC[C@H]1CC[C@H](c2c[nH]cn2)C1)NC1CC1 (racemic),> 10 µM
6,N#C/N=C(/NCCOc1ccccc1)NC[C@H]1CC[C@H](c2c[nH]cn2)C1 (racemic),> 10 µM

# Biological target: T1, Histamine H2 receptor
# Assay: Intrinsic activity at human histamine H2 receptor expressed in sf9 cell membrane co-expressing Gsalphas at 10 uM incubated for 90 mins by [35S]GTPgammaS binding assay relative to histamine
# Format: functional
row,SMILES,Intrinsic activity
1,N#C/N=C(/NCCSc1ccccc1)NC[C@@H]1CC[C@@H](c2c[nH]cn2)C1,0
2,N#C/N=C(/NCCSc1ccccc1)NC[C@H]1CC[C@@H](c2c[nH]cn2)C1,0
3,CN/C(=N\C#N)NC[C@@H]1CC[C@@H](c2c[nH]cn2)C1,0
4,CN/C(=N\C#N)NC[C@H]1CC[C@@H](c2c[nH]cn2)C1,0
5,N#C/N=C(\NC[C@H]1CC[C@H](c2c[nH]cn2)C1)NC1CC1 (racemic),0
6,N#C/N=C(/NCCOc1ccccc1)NC[C@H]1CC[C@H](c2c[nH]cn2)C1 (racemic),0

# Biological target: T2, Histamine H3 receptor (Homo sapiens, UniProt Q9Y5N1)
# T2 sequence (Q9Y5N1 whole entry): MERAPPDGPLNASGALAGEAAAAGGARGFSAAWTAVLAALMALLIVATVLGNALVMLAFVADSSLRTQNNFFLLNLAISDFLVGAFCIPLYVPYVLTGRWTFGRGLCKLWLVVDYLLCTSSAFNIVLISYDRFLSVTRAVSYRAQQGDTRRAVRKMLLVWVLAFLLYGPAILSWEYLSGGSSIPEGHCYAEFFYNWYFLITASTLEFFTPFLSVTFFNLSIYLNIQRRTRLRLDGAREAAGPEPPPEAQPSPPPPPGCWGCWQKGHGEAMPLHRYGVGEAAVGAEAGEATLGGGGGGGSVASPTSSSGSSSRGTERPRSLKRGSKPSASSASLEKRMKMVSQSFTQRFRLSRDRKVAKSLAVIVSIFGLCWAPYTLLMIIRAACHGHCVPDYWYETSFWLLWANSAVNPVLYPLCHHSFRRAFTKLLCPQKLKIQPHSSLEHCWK
# Assay: Antagonist activity at human histamine H3 receptor expressed in sf9 cell membrane co-expressing mammalian Galphai2 and Gbeta1gamma2 assessed as inhibition of histamine-induced [35S]GTPgammaS binding incubated for 90 mins
# Format: functional
row,SMILES,Kb
1,N#C/N=C(/NCCSc1ccccc1)NC[C@@H]1CC[C@@H](c2c[nH]cn2)C1,0.143 µM
2,CN/C(=N\C#N)NC[C@H]1CC[C@@H](c2c[nH]cn2)C1,2.81 µM

# Next, values leading:
row,Kb,SMILES
1,0.528 µM,N#C/N=C(/NCCSc1ccccc1)NC[C@H]1CC[C@@H](c2c[nH]cn2)C1
2,0.54 µM,N#C/N=C(/NCCOc1ccccc1)NC[C@H]1CC[C@H](c2c[nH]cn2)C1 (racemic)

# Biological target: T1, Histamine H2 receptor
# Assay: Displacement of [3H]tiotidine from human histamine H2 receptor expressed in sf9 cell membrane co-expressing Gsalphas incubated for 60 mins by liquid scintillation counting method
row,SMILES,pKi
1,N#C/N=C(/NCCSc1ccccc1)NC[C@@H]1CC[C@@H](c2c[nH]cn2)C1,5.01
2,N#C/N=C(/NCCSc1ccccc1)NC[C@H]1CC[C@H](c2c[nH]cn2)C1,4.99
3,CN/C(=N\C#N)NC[C@@H]1CC[C@@H](c2c[nH]cn2)C1,< 5.00
4,CN/C(=N\C#N)NC[C@H]1CC[C@@H](c2c[nH]cn2)C1,< 5.00

# The remaining lines, values ahead:
row,pKi,SMILES
1,5.13,N#C/N=C(/NCCSc1ccccc1)NC[C@H]1CC[C@@H](c2c[nH]cn2)C1
2,5.14,N#C/N=C(/NCCSc1ccccc1)NC[C@@H]1CC[C@H](c2c[nH]cn2)C1

# Biological target: T2, Histamine H3 receptor
# Assay: Agonist activity at human histamine H3 receptor expressed in sf9 cell membrane co-expressing mammalian Galphai2 and Gbeta1gamma2 incubated for 90 mins by [35S]GTPgammaS binding assay
# Format: functional
row,SMILES,pEC50
1,CN/C(=N\C#N)NC[C@@H]1CC[C@@H](c2c[nH]cn2)C1,5.04
2,N#C/N=C(\NC[C@H]1CC[C@H](c2c[nH]cn2)C1)NC1CC1 (racemic),< 5.00
3,CN/C(=N\C#N)NC[C@H]1CC[C@H](c2c[nH]cn2)C1 (racemic),6.43

# Biological target: T2, Histamine H3 receptor
# Assay: Intrinsic activity at human histamine H3 receptor expressed in sf9 cell membrane co-expressing mammalian Galphai2 and Gbeta1gamma2 at 10 uM incubated for 90 mins by [35S]GTPgammaS binding assay relative to histamine
# Format: functional
row,SMILES,Intrinsic activity
1,N#C/N=C(/NCCSc1ccccc1)NC[C@@H]1CC[C@@H](c2c[nH]cn2)C1,-0.21
2,N#C/N=C(/NCCSc1ccccc1)NC[C@H]1CC[C@@H](c2c[nH]cn2)C1,-0.34
3,CN/C(=N\C#N)NC[C@@H]1CC[C@@H](c2c[nH]cn2)C1,0.29
4,CN/C(=N\C#N)NC[C@H]1CC[C@@H](c2c[nH]cn2)C1,-0.14
5,N#C/N=C(\NC[C@H]1CC[C@H](c2c[nH]cn2)C1)NC1CC1 (racemic),0.36
6,N#C/N=C(/NCCOc1ccccc1)NC[C@H]1CC[C@H](c2c[nH]cn2)C1 (racemic),0

# Biological target: T2, Histamine H3 receptor
# Assay: Displacement of [3H]N-alpha-methylhistamine from human histamine H3 receptor expressed in sf9 cell membrane co-expressing mammalian Galphai2 and Gbeta1gamma2 incubated for 60 mins by liquid scintillation counting method
row,SMILES,pKi
1,N#C/N=C(/NCCSc1ccccc1)NC[C@@H]1CC[C@@H](c2c[nH]cn2)C1,6.23
2,N#C/N=C(/NCCSc1ccccc1)NC[C@H]1CC[C@H](c2c[nH]cn2)C1,5.67
3,CN/C(=N\C#N)NC[C@@H]1CC[C@@H](c2c[nH]cn2)C1,5.25
4,CN/C(=N\C#N)NC[C@H]1CC[C@@H](c2c[nH]cn2)C1,5.02
5,CN/C(=N\C#N)NC[C@H]1CC[C@H](c2c[nH]cn2)C1 (racemic),6.08

# Now from value to molecule:
row,pKi,SMILES
1,6.13,N#C/N=C(/NCCSc1ccccc1)NC[C@H]1CC[C@@H](c2c[nH]cn2)C1
2,6.06,N#C/N=C(/NCCSc1ccccc1)NC[C@@H]1CC[C@H](c2c[nH]cn2)C1

# Biological target: T3, Histamine H4 receptor (Homo sapiens, UniProt Q9H3N8)
# Assay: Agonist activity at human histamine H4 receptor expressed in sf9 cell membrane co-expressing mammalian Galphai2 and Gbeta1gamma2 incubated for 90 mins by [35S]GTPgammaS binding assay
# Format: functional
row,SMILES,pEC50
1,N#C/N=C(/NCCSc1ccccc1)NC[C@H]1CC[C@H](c2c[nH]cn2)C1,7.96
2,N#C/N=C(/NCCSc1ccccc1)NC[C@H]1CC[C@@H](c2c[nH]cn2)C1,6.26
3,CN/C(=N\C#N)NC[C@@H]1CC[C@@H](c2c[nH]cn2)C1,5.96
4,N#C/N=C(/NCCSc1ccccc1)NC[C@@H]1CC[C@H](c2c[nH]cn2)C1,6.53
5,CN/C(=N\C#N)NC[C@H]1CC[C@@H](c2c[nH]cn2)C1,5.57
6,N#C/N=C(\NC[C@H]1CC[C@H](c2c[nH]cn2)C1)NC1CC1 (racemic),6.64
7,N#C/N=C(/NCCOc1ccccc1)NC[C@H]1CC[C@H](c2c[nH]cn2)C1 (racemic),6.28
8,CN/C(=N\C#N)NC[C@H]1CC[C@H](c2c[nH]cn2)C1 (racemic),6.69

# Biological target: T3, Histamine H4 receptor
# Assay: Displacement of [3H]UR-PI294 from human histamine H4 receptor expressed in sf9 cell membrane co-expressing mammalian Galphai2 and Gbeta1gamma2 incubated for 60 mins by liquid scintillation counting method
row,SMILES,pKi
1,N#C/N=C(/NCCSc1ccccc1)NC[C@@H]1CC[C@@H](c2c[nH]cn2)C1,5.98
2,N#C/N=C(/NCCSc1ccccc1)NC[C@H]1CC[C@H](c2c[nH]cn2)C1,7.66
3,CN/C(=N\C#N)NC[C@@H]1CC[C@@H](c2c[nH]cn2)C1,6.06
4,CN/C(=N\C#N)NC[C@H]1CC[C@@H](c2c[nH]cn2)C1,5.46
5,CN/C(=N\C#N)NC[C@H]1CC[C@H](c2c[nH]cn2)C1 (racemic),6.62

# Next, values leading:
row,pKi,SMILES
1,6.54,N#C/N=C(/NCCSc1ccccc1)NC[C@H]1CC[C@@H](c2c[nH]cn2)C1
2,6.74,N#C/N=C(/NCCSc1ccccc1)NC[C@@H]1CC[C@H](c2c[nH]cn2)C1

# Biological target: T3, Histamine H4 receptor
# Assay: Agonist activity at human SF-His6-tagged histamine H4 receptor expressed in HEK293 cells assessed as inhibition of forskolin-stimulated response incubated for 5 hrs by luciferase reporter gene assay
# Format: cell-based
row,SMILES,pEC50
1,N#C/N=C(/NCCSc1ccccc1)NC[C@@H]1CC[C@@H](c2c[nH]cn2)C1,6.30
2,N#C/N=C(/NCCSc1ccccc1)NC[C@H]1CC[C@H](c2c[nH]cn2)C1,7.60

# Biological target: T4, Histamine H4 receptor (Mus musculus, UniProt Q91ZY2)
# T4 sequence (Q91ZY2 whole entry): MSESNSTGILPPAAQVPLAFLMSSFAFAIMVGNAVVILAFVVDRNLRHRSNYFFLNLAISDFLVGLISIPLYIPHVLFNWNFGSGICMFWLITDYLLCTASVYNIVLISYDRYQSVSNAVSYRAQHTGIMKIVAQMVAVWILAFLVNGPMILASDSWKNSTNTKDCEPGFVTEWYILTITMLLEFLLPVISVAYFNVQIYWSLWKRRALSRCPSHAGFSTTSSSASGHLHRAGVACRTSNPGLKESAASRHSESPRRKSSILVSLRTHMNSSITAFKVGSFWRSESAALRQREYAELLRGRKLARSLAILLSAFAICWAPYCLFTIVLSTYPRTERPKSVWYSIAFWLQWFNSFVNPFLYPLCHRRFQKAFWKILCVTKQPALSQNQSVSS
# Assay: Agonist activity at mouse SF-His6-tagged histamine H4 receptor expressed in HEK293 cells assessed as inhibition of forskolin-stimulated response incubated for 5 hrs by luciferase reporter gene assay
# Format: cell-based
row,SMILES,pEC50
1,N#C/N=C(/NCCSc1ccccc1)NC[C@@H]1CC[C@@H](c2c[nH]cn2)C1,6.23
2,N#C/N=C(/NCCSc1ccccc1)NC[C@H]1CC[C@H](c2c[nH]cn2)C1,6.78
3,CN/C(=N\C#N)NC[C@@H]1CC[C@@H](c2c[nH]cn2)C1,5.44

# Biological target: T5, Histamine H4 receptor (Mus musculus) (UniProt Q91ZY2)
# T5 sequence (whole entry): T4 sequence (Q91ZY2 whole entry)
# Assay: Intrinsic activity at mouse SF-His6-tagged histamine H4 receptor expressed in HEK293 cells assessed as inhibition of forskolin-stimulated response incubated for 5 hrs by luciferase reporter gene assay relative to histamine
# Format: cell-based
row,SMILES,Intrinsic activity
1,N#C/N=C(/NCCSc1ccccc1)NC[C@@H]1CC[C@@H](c2c[nH]cn2)C1,0.29
2,CN/C(=N\C#N)NC[C@@H]1CC[C@@H](c2c[nH]cn2)C1,0.96
